{"source": "patent US20210329924A1", "about": "“METAL-BASED ANTIMICROBIAL COMPOSITION AND METHOD OF USING” (Microbonds Inc., priority 2020, published 2021)", "key": {"E. Coli (OD600 1.5)": {"test_system": "E. Coli (OD600 1.5)", "assay": "Antimicrobial kill efficacy test on treated substrate (E. Coli)", "assay_type": "cell-based", "details": "1 hr; for Efficacy test Pass: 20 C.", "text": "The 100000 ppm stock solution is subsequently diluted to the silver metal loading concentrations ranging from 3000 ppm down to 10 ppm, as shown in table 1 (the final usage concentration). The solutions are then applied onto a standard fabric substrate, such as white cotton textile and tested for various characteristics. The substrates, after being treated with the solution, are coated with standardized microbes, such as E. Coli or MRSA and tested for antimicrobial kill efficacy. The treated substrates are subjected to a wash test to determine if the silver metal still remains adhered to the fabric after multiple washes. For high silver metal ppm fabrics, it is easy to determine if the color of the stain fades or washes out over time. For low-ppm, non-stained items, the substrate is subjected to a digestion method to calculate the silver concentration per unit area after a number of washes to determine if the silver is remaining stable or is washing out."}, "MRSA (Staphylococcus)": {"test_system": "MRSA (Staphylococcus)", "assay": "Antimicrobial kill efficacy test on treated substrate (MRSA)", "assay_type": "cell-based", "details": "white cotton duvet, 60 C.-100 C., 1 hr"}, "[1]": {"details": "10 ppm silver metal loading, white cotton fabric"}, "[2]": {"details": "20 ppm silver metal loading, white cotton fabric"}, "[3]": {"details": "100 ppm silver metal loading, white cotton fabric"}, "[4]": {"details": "500 ppm silver metal loading, white cotton fabric"}, "[5]": {"details": "1000 ppm silver metal loading, white cotton fabric"}}, "data": [{"substance": "[Ag(NH3)2]-carbonate [Example 1]", "values": [{"measurement": "Efficacy test Pass?", "setting": "E. Coli (OD600 1.5); [1]", "result": "No"}, {"measurement": "Efficacy test Pass?", "setting": "E. Coli (OD600 1.5); [2]", "result": "Yes"}, {"measurement": "Efficacy test Pass?", "setting": "E. Coli (OD600 1.5); [3]", "result": "Yes"}, {"measurement": "Efficacy test Pass?", "setting": "E. Coli (OD600 1.5); [4]", "result": "Yes"}, {"measurement": "Efficacy test Pass?", "setting": "E. Coli (OD600 1.5); [5]", "result": "Yes"}]}, {"substance": "[Ag(NH3)2]-oxalate [Example 3]", "values": [{"measurement": "Efficacy test Pass", "setting": "E. Coli (OD600 1.5); [1]", "result": "No"}, {"measurement": "Efficacy test Pass", "setting": "E. Coli (OD600 1.5); [2]", "result": "Yes"}, {"measurement": "Efficacy test Pass", "setting": "E. Coli (OD600 1.5); [3]", "result": "Yes"}, {"measurement": "Efficacy test Pass", "setting": "E. Coli (OD600 1.5); [4]", "result": "Yes"}, {"measurement": "Efficacy test Pass", "setting": "E. Coli (OD600 1.5); [5]", "result": "Yes"}]}, {"substance": "[Ag(NH3)2]-fluoride [Example 4]", "values": [{"measurement": "Efficacy test Pass", "setting": "E. Coli (OD600 1.5); 10 ppm silver metal loading, white Coolmax polyester fabric", "result": "No"}, {"measurement": "Efficacy test Pass", "setting": "E. Coli (OD600 1.5); 20 ppm silver metal loading, white Coolmax polyester fabric", "result": "Yes"}, {"measurement": "Efficacy test Pass", "setting": "E. Coli (OD600 1.5); 100 ppm silver metal loading, white Coolmax polyester fabric", "result": "Yes"}, {"measurement": "Efficacy test Pass", "setting": "E. Coli (OD600 1.5); 500 ppm silver metal loading, white Coolmax polyester fabric", "result": "Yes"}, {"measurement": "Efficacy test Pass", "setting": "E. Coli (OD600 1.5); 1000 ppm silver metal loading, white Coolmax polyester fabric", "result": "Yes"}, {"measurement": "Efficacy test Pass", "setting": "MRSA (Staphylococcus); 10 ppm copper metal loading", "result": "Yes"}, {"measurement": "Efficacy test Pass", "setting": "MRSA (Staphylococcus); 20 ppm copper metal loading", "result": "Yes"}, {"measurement": "Efficacy test Pass", "setting": "MRSA (Staphylococcus); 100 ppm copper metal loading", "result": "Yes"}, {"measurement": "Efficacy test Pass", "setting": "MRSA (Staphylococcus); 500 ppm copper metal loading", "result": "Yes"}, {"measurement": "Efficacy test Pass", "setting": "MRSA (Staphylococcus); 1000 ppm copper metal loading", "result": "Yes"}]}, {"substance": "[Ag(NH3)2]-formate [Example 6]", "values": [{"measurement": "Efficacy test Pass", "setting": "E. Coli (OD600 1.5); 10 ppm silver metal loading, Substrate = Dark Coolmax polyester fabric / Hand (Example 6: on skin)", "result": "No"}, {"measurement": "Efficacy test Pass", "setting": "E. Coli (OD600 1.5); 20 ppm silver metal loading, Substrate = Dark Coolmax polyester fabric / Hand (Example 6: on skin)", "result": "Yes"}, {"measurement": "Efficacy test Pass", "setting": "E. Coli (OD600 1.5); 100 ppm silver metal loading, Substrate = Dark Coolmax polyester fabric / Hand (Example 6: on skin)", "result": "Yes"}, {"measurement": "Efficacy test Pass", "setting": "E. Coli (OD600 1.5); 500 ppm silver metal loading, Substrate = Dark Coolmax polyester fabric / Hand (Example 6: on skin)", "result": "Yes"}, {"measurement": "Efficacy test Pass", "setting": "E. Coli (OD600 1.5); 1000 ppm silver metal loading, Substrate = Dark Coolmax polyester fabric / Hand (Example 6: on skin)", "result": "Yes"}]}, {"substance": "[Cu(NH3)4(H2O)n]SO4 [Example 8]", "values": [{"measurement": "Efficacy test Pass", "setting": "MRSA (Staphylococcus); 10 ppm zinc metal loading", "result": "No"}, {"measurement": "Efficacy test Pass", "setting": "MRSA (Staphylococcus); 20 ppm zinc metal loading", "result": "Yes"}, {"measurement": "Efficacy test Pass", "setting": "MRSA (Staphylococcus); 100 ppm zinc metal loading", "result": "Yes"}, {"measurement": "Efficacy test Pass", "setting": "MRSA (Staphylococcus); 500 ppm zinc metal loading", "result": "Yes"}, {"measurement": "Efficacy test Pass", "setting": "MRSA (Staphylococcus); 1000 ppm zinc metal loading", "result": "Yes"}]}, {"substance": "[Ag(NH3)2]-formate [Example 5]", "values": [{"measurement": "Efficacy test Pass", "setting": "E. Coli (OD600 1.5); 10 ppm silver metal loading, dark Coolmax polyester fabric", "result": "No"}, {"measurement": "Efficacy test Pass", "setting": "E. Coli (OD600 1.5); 20 ppm silver metal loading, dark Coolmax polyester fabric", "result": "Yes"}, {"measurement": "Efficacy test Pass", "setting": "E. Coli (OD600 1.5); 100 ppm silver metal loading, dark Coolmax polyester fabric", "result": "Yes"}, {"measurement": "Efficacy test Pass", "setting": "E. Coli (OD600 1.5); 500 ppm silver metal loading, dark Coolmax polyester fabric", "result": "Yes"}, {"measurement": "Efficacy test Pass", "setting": "E. Coli (OD600 1.5); 1000 ppm silver metal loading, dark Coolmax polyester fabric", "result": "Yes"}]}]}
